Laboratory results reported in patent US10472366B2, “Glucuronide prodrugs of tofacitinib” (THERAVANCE BIOPHARMA R&D IP, LLC, priority 2017, dated 2019).
Several values for one entry are separate records, joined by “and”; a condition that tells them apart may be missing. Equal entries are not always repeated.

Tests used:
[1] = tested on: oxazolone-induced colitis; experiment: Mouse model of oxazolone-induced colitis; format: in vivo; details: PO, BID, BALB/C mice, vs vehicle/oxazolone, p<0.05
Experimental: Oxazolone-induced colitis is an experimental model that has a histological resemblance to human ulcerative colitis (Heller et al. […], 2002, 17, 629-638). Adult BALB/C mice (25-28 g, 9-12 weeks of age) from BioNeeds (India) were used in the assay. On Day 1, animals were lightly anesthetized with isoflurane and the hairs between the shoulder were carefully removed. Oxazolone (6 mg/mouse, 100 μL, 4:1 acetone:olive oil formulation) or vehicle solution was slowly applied to the bare skin patch to induce skin sensitization. Six days after skin sensitization, the mice were fasted overnight and then anesthetized with ketamine and xylazine administered intraperitoneally. A 1 mL syringe filled with oxazolone solution (0.5 mg/50 μL/mouse in 50% ethanol) or 50% ethanol/saline was inserted carefully ˜3.8 cm into the colon of the mouse. Animals were kept in a head down position and oxazolone or vehicle solution was rectally instilled very slowly over a minute. The mice were held vertically (head down) for another minute to ensure that the entire oxazolone or vehicle solution remained inside the colon. Test compound treatment (PO, BID or TID) or vehicle was initiated the evening prior to the oxazolone intrarectal (IR) challenge. On both first (Day 1) and second (Day 2) days post-oxazolone IR challenge, the Disease Activity Index (DAI) was assessed by treatment-blinded experimenters for each mouse, according to the following subscores: stool consistency (0, normal; 2, loose; 4, diarrhea), gross bleeding and hemoccult test (0, absence; 2, blood tinged; 4, overt blood presence), and weight loss (0, none; 1, 1%-5%; 2, 6^%-10%; 3, 11%-15%; 4, more than 15%); DAI=average of (stool consistency+blood presence+weight loss scores).
An area-under-the-curve (AUC) calculation based on total DAI scores was performed to track disease progression during the course of the experiment. AUC for each experimental group was calculated as: AUC=[(Day 1−Day 0)*Average (DAI Score of Day 0 & Day 1)]+[(Day 2−Day 1)*Average (DAI Score of Day 1 & Day 2)]. A Student's t-test compared the DAI AUC score of the vehicle/vehicle and vehicle/oxazolone groups to evaluate whether disease was induced following oxazolone treatment. This was followed by a one-way analysis of variance (ANOVA), with Dunnett's post hoc test, to compare the DAI AUC score of the vehicle/oxazolone and test compound/oxazolone groups. Statistical significance was defined by an α level set at p<0.05.

[2] = Oral pharmacokinetics in rat assay; format: in vivo; details: liberated tofacitinib AUC0-6 h in colon tissue; male Sprague Dawley rats, single PO dose 5 mg/kg of test compound
Experimental: When cleaved by β-glucuronidase enzyme, the compounds of the present invention release tofacitinib. The object of this assay was to determine tofacitinib exposure (AUC0-6 h) in colon tissue and plasma following oral dosing of compounds of the present invention in rats.
Male Sprague Dawley rats (n=2/time point) received a single PO oral gavage dose (5 mg/kg in 1:20 mixture of 5% DMSO and 1% HPMC) of test compounds. At 0.5, 1, 3, 6 and 24 h post-dosing, rats were sacrificed via cardiac puncture exsanguination, and blood samples were taken and placed into sample tubes (Microtainer, Becton, Dickinson and Company) containing sodium fluoride and then placed on ice. Plasma was obtained by centrifugation (Eppendorf centrifuge, 5804R) for 4 minutes at approximately 12,000 rpm at 4° C.
The colons were removed from exsanguinated rats and the colon contents gently removed. The colons were flushed with saline and patted dry. The colons were then homogenized in 3× the weight of sterile water using a tissue homogenizer (Precellys homogenizer, Bertin Instruments) at approximately 4° C. All samples were stored at −80° C. for later bioanalysis.
The concentration of tofacitinib in each sample was determined as follows: the plasma and colon samples were vortexed, combined with a 50 μL aliquot of rat plasma, extracted with 200 μL of ACN containing an internal standard and quantified against the internal standard by LC-MS. An area-under-the-concentration curve (AUC0-6 h) was calculated for plasma and colon test compound and liberated tofacitinib. A key parameter to assess suitability for localized delivery of tofacitinib to the colon was the tofacitinib colon to plasma AUC ratio.

[3] = tested on: β-glucuronidase in rat colon feces; experiment: Rat colon fecal homogenate stability assay; format: in vitro ADME; details: in vitro half-life in rat fecal supernatant-homogenate, anaerobic, 10 μM substrate, individual values when assay repeated; for half-life at 10 μM: male, rat, rat colon fecal supernatant-homogenate, read-out: T½
Text: The compounds of the present invention contain a glucuronide prodrug moiety that is expected to be cleaved by β-glucuronidase enzyme. The objective of this assay was to determine the half-life for compounds of the present invention in the presence of β-glucuronidase in rat colon feces.
Following sacrifice of a naïve male rat (˜300 g) by cardiac puncture exsanguination, the colon was ligated and removed to an anaerobic chamber (AS-580, Anaerobe Systems). The fecal content was removed within the chamber and was diluted 1:10 with phosphate buffer (1 gram fecal content to 9 mL phosphate buffer) and the resulting mixture was homogenized using a handheld Omni Tissue Master. The fecal homogenate was centrifuged at 2000 g for 10 min to remove bulk material and the supernatant was removed and used for the incubations.
DMSO stock solutions (10 mM) of the test compounds and sulfasalazine (control) were prepared. Sulfasalazine was used as a positive control to confirm viability of the fecal supernatant-homogenate (see, e.g., Azad Khan et al., Clinical Science (1983) 64, 349-354). If the in vitro half-life (T½) for sulfasalazine in the fecal sample was less than 30 min, the fecal sample was deemed to be viable and in true anaerobic conditions. However, if the T½ for sulfasalazine was greater than 30 min, the fecal sample was typically contaminated with oxygen and was not viable. The final substrate concentration of each assay was 10 μM. Reactions were started by adding a 5 μL aliquot of diluted test compound stock solution into 300 μL of rat fecal supernatant-homogenate. At 0, 15, 30, 60, 90, and 120 min post reaction initiation, a 50 μL aliquot was removed and added to a mixture of 200 μL of acetonitrile with 3% formic acid and an internal standard. All samples were centrifuged at 2000 g for 10 min after which 50 μL of supernatant was diluted into 150 μL of water for analysis on an LC-MS system. In vitro half-lives (T½) for the test compounds were calculated as follows: T½=0.693/elimination rate constant. When the assay was performed more than once, individual values are reported.

[4] = Oral pharmacokinetics in mouse assay; format: in vivo; details: liberated tofacitinib AUC0-6 h in colon tissue; male Balb/c mice, single PO dose 5 mg/kg of test compound
Experimental: When cleaved by β-glucuronidase enzyme, the compounds of the present invention release tofacitinib. The object of this assay was to determine tofacitinib exposure (AUC0-6 h) in colon tissue and plasma following oral dosing of compounds of the present invention in mice.
Male Balb/c mice (n=2/time point) received a single PO oral gavage dose (5 mg/kg in 1:20 mixture of 5% DMSO and 1% HPMC) of the test compound. At 2 h and 6 h post-dosing, mice were sacrificed via cardiac puncture exsanguination and blood samples were taken and placed into sample tubes (Microtainer, Becton, Dickinson and Company) containing sodium fluoride and then placed on ice. Plasma was obtained by centrifugation (Eppendorf centrifuge, 5804R) for 4 min at approximately 12,000 rpm at 4° C.
The colons were removed from the exsanguinated mice and the colon fecal contents were gently removed. The colons were flushed with saline and patted dry. […]
The concentration of tofacitinib in each sample was determined as follows: the plasma and colon homogenate samples were vortexed, combined with a 50 μL aliquot of rat plasma, extracted with 200 μL of ACN containing an internal standard and quantified against the internal standard by LC-MS. An area-under-the-concentration curve (AUC0-6 h) was calculated for plasma and colon test compound and liberated tofacitinib. […]

Row | Compound | reversal of oxazolone-induced colitis (DAI AUC score) ([1]; 3 and 30 mg/kg) | Colon AUC [2] [µg·h/g] | T½ [3] | half-life at 10 μM [3] [min] | Colon AUC [4] [µg·h/g] | reversal of oxazolone-induced colitis (DAI AUC score) ([1]; 30 mg/kg) | reversal of oxazolone-induced colitis (DAI AUC score) ([1]; 3, 10 and 30 mg/kg)
1 | C[C@@H]1CCN(C(=O)CC#N)C[C@@H]1N(C)c1ncnc2c1ccn2C(=O)N(C)CCN(C)C(=O)O[C@@H]1O[C@H](C(=O)O)[C@@H](O)[C@H](O)[C@H]1O [Compound II-1, (2S,3S,4S,5R,6S)-6-(((2-(4-(((3R,4R)-1-(2-Cyanoacetyl)-4-methylpiperidin-3-yl)(methyl)amino)-N-methyl-7H-pyrrolo[2,3-d]pyrimidine-7-carboxamido)ethyl)(methyl)carbamoyl)oxy)-3,4,5-trihydroxytetrahydro-2H-pyran-2-carboxylic Acid] | statistically significant reversal | 20.2 | 16 min and < 15 min | 14 |  |  | 
2 | C[C@@H]1CCN(C(=O)CC#N)C[C@@H]1N(C)c1ncnc2c1ccn2C(=O)N(C)c1cc([N+](=O)[O-])ccc1O[C@@H]1O[C@H](C(=O)O)[C@@H](O)[C@H](O)[C@H]1O [Compound III-1, (2S,3S,4S,5R,6S)-6-(2-(4-(((3R,4R)-1-(2-Cyanoacetyl)-4-methylpiperidin-3-yl)(methyl)amino)-N-methyl-7H-pyrrolo[2,3-d]pyrimidine-7-carboxamido)-4-nitrophenoxy)-3,4,5-trihydroxytetrahydro-2H-pyran-2-carboxylic Acid] |  |  |  | 2 | 6.07 | statistically significant reversal | 
3 | C[C@@H]1CCN(C(=O)CC#N)C[C@@H]1N(C)c1ncnc2c1ccn2C(=O)N(C)c1ccccc1O[C@@H]1O[C@H](C(=O)O)[C@@H](O)[C@H](O)[C@H]1O [Compound III-2, (2S,3S,4S,5R,6S)-6-(2-(4-(((3R,4R)-1-(2-Cyanoacetyl)-4-methylpiperidin-3-yl)(methyl)amino)-N-methyl-7H-pyrrolo[2,3-d]pyrimidine-7-carboxamido)phenoxy)-3,4,5-trihydroxytetrahydro-2H-pyran-2-carboxylic Acid] |  | 33.2 | 29 min and < 15 min | 20 |  |  | statistically significant reversal
